Counter-ions that a name gives are not always drawn. ± gives the standard deviation of the averaged measurements.
System: SW872
Test: relative viability vs DMSO control (72 h) (fraction); higher = more viable cells
Outline: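 Sarcoma cell lines were plated in 384 wells to reach 80–90% confluence, treated after 24 h with 2.5 µl of serially diluted compound and held 72 h at 37 °C, 5% CO2. Relative viability was taken as percent growth from ATPLite readings, averaged over up to triplicate wells. The values were rescaled so that 1 marks full and 0 marks none.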

Compound | relative viability (0.00017 µM) | relative viability (0.00051 µM) | relative viability (0.00152 µM) | relative viability (0.00457 µM) | relative viability (0.01372 µM) | relative viability (0.04115 µM) | relative viability (0.1235 µM) | relative viability (0.3704 µM) | relative viability (1.111 µM) | relative viability (3.333 µM) | relative viability (10 µM) | relative viability (2 pM) | relative viability (5 pM) | relative viability (15 pM) | relative viability (50 pM) | relative viability (0.00014 µM) | relative viability (0.00041 µM) | relative viability (0.0012 µM) | relative viability (0.0037 µM) | relative viability (0.011 µM) | relative viability (200 fM) | relative viability (600 fM)
Nc1cc(C(F)(F)F)c(-c2cc(N3CCOCC3)nc(N3CCOCC3)n2)cn1 [Buparlisib] | 0.994 ± 0.037 | 0.96 ± 0.046 | 0.995 ± 0.031 | 0.958 ± 0.019 | 0.964 ± 0.025 | 0.946 ± 0.055 | 0.901 ± 0.016 | 0.765 ± 0.035 | 0.543 ± 0.021 | 0.249 ± 0.014 | 0.158 ± 0.0092 | – | – | – | – | – | – | – | – | – | – | –
CC(C)NC(=O)C1CCC(n2c(NC(=O)c3ccc(F)cc3)nc3ccc(CN4CCC(C(C)(C)O)CC4)cc32)CC1 (stereo not given) [Belizatinib] | 1.08 ± 0.04 | 1.07 ± 0.027 | 1.04 ± 0.052 | 1.05 ± 0.033 | 1.07 ± 0.01 | 1.05 ± 0.024 | 1.01 ± 0.019 | 0.817 ± 0.034 | 0.5729 ± 0.0013 | 0.412 ± 0.021 | 0.274 ± 0.0093 | – | – | – | – | – | – | – | – | – | – | –
CC1(C)CNc2cc(NC(=O)c3cccnc3NCc3ccncc3)ccc21 [Motesanib] | 1 ± 0.03 | 0.988 ± 0.014 | 0.972 ± 0.025 | 0.971 ± 0.029 | 0.95 ± 0.047 | 0.98 ± 0.012 | 0.971 ± 0.035 | 0.999 ± 0.015 | 0.978 ± 0.021 | 0.958 ± 0.035 | 0.811 ± 0.028 | – | – | – | – | – | – | – | – | – | – | –
CC(=O)Nc1cccc(-n2c(=O)n(C3CC3)c(=O)c3c(Nc4ccc(I)cc4F)n(C)c(=O)c(C)c32)c1 [Trametinib] | 1.11 ± 0.046 | 1.05 ± 0.055 | 0.856 ± 0.059 | 0.674 ± 0.046 | 0.597 ± 0.0061 | 0.607 ± 0.034 | 0.593 ± 0.008 | 0.593 ± 0.022 | 0.562 ± 0.015 | 0.549 ± 0.031 | 0.564 ± 0.014 | – | – | – | – | – | – | – | – | – | – | –
COc1cc2c(cc1O)CCN[C@]21CS[C@@H]2c3c(OC(C)=O)c(C)c4c(c3[C@H](COC1=O)N1[C@@H]2[C@H]2c3c(cc(C)c(OC)c3O)C[C@@H]([C@@H]1O)N2C)OCO4 [Trabectedin] | – | – | – | – | – | – | – | – | – | – | – | 1.045 ± 0.0069 | 0.986 ± 0.05 | 0.835 ± 0.034 | 0.606 ± 0.1 | 0.281 ± 0.028 | 0.158 ± 0.0096 | 0.202 ± 0.01 | 0.245 ± 0.0073 | 0.183 ± 0.0041 | 1.03 ± 0.037 | 1.038 ± 0.0094
CN1CCN(c2ccc3nc(-c4c(N)c5c(F)cccc5[nH]c4=O)[nH]c3c2)CC1 [Dovitinib] | 1.05 ± 0.054 | 1.04 ± 0.022 | 1.06 ± 0.015 | 1.08 ± 0.018 | 1.06 ± 0.045 | 1.05 ± 0.025 | 0.937 ± 0.097 | 0.891 ± 0.067 | 0.604 ± 0.03 | 0.402 ± 0.023 | 0.235 ± 0.022 | – | – | – | – | – | – | – | – | – | – | –
C[C@@H]1COCCN1c1cc(-c2ccnn2C)c2ccnc(-c3ccn[nH]3)c2n1 | 0.994 ± 0.054 | 1.01 ± 0.018 | 1.01 ± 0.014 | 1.04 ± 0.037 | 0.953 ± 0.043 | 0.867 ± 0.013 | 0.714 ± 0.047 | 0.452 ± 0.043 | 0.282 ± 0.012 | 0.229 ± 0.011 | 0.197 ± 0.0092 | – | – | – | – | – | – | – | – | – | – | –
Cn1cc(-c2cc3c(N4CCN(c5ncc([C@@](C)(N)c6ccc(F)cc6)cn5)CC4)ncnn3c2)cn1 [Avapritinib] | 0.913 ± 0.047 | 0.95 ± 0.022 | 0.965 ± 0.041 | 0.939 ± 0.026 | 0.972 ± 0.036 | 0.941 ± 0.035 | 0.953 ± 0.032 | 0.886 ± 0.038 | 0.846 ± 0.029 | 0.766 ± 0.038 | 0.67 ± 0.028 | – | – | – | – | – | – | – | – | – | – | –
C[C@]1(O)C[C@@H](c2nc(-c3ccc4ccc(-c5ccccc5)nc4c3)c3c(N)nccn32)C1 [Linsitinib] | 1.04 ± 0.037 | 1.05 ± 0.014 | 1.03 ± 0.041 | 1 ± 0.043 | 0.995 ± 0.048 | 0.973 ± 0.027 | 0.9745 ± 0.0092 | 0.9267 ± 0.0035 | 0.914 ± 0.027 | 0.821 ± 0.028 | 0.615 ± 0.018 | – | – | – | – | – | – | – | – | – | – | –
Cc1nc(NC(=O)N2CCC[C@H]2C(N)=O)sc1-c1ccnc(C(C)(C)C(F)(F)F)c1 [Alpelisib] | 1.04 ± 0.055 | 1.04 ± 0.046 | 1.03 ± 0.052 | 1 ± 0.062 | 0.965 ± 0.068 | 0.938 ± 0.077 | 0.835 ± 0.039 | 0.778 ± 0.062 | 0.698 ± 0.085 | 0.565 ± 0.035 | 0.398 ± 0.024 | – | – | – | – | – | – | – | – | – | – | –
COc1cccc2c1C(=O)c1c(O)c3c(c(O)c1C2=O)C[C@@](O)(C(=O)CO)C[C@@H]3O[C@H]1C[C@H](N)[C@H](O)[C@H](C)O1 [Doxorubicin Hydrochloride] | 1.04 ± 0.021 | 1.05 ± 0.046 | 1.04 ± 0.031 | 1.08 ± 0.036 | 1.06 ± 0.018 | 0.961 ± 0.024 | 0.527 ± 0.051 | 0.203 ± 0.011 | 0.172 ± 0.014 | 0.213 ± 0.005 | 0.175 ± 0.0045 | – | – | – | – | – | – | – | – | – | – | –
CNC(=O)c1ccc(-c2cnc3ncc(Cc4ccc5ncccc5c4)n3n2)cc1F [Capmatinib] | 1.04 ± 0.041 | 1.03 ± 0.026 | 1.04 ± 0.048 | 1.03 ± 0.025 | 1.05 ± 0.049 | 1.05 ± 0.022 | 1.03 ± 0.043 | 1.06 ± 0.029 | 0.987 ± 0.024 | 1.02 ± 0.012 | 1 ± 0.019 | – | – | – | – | – | – | – | – | – | – | –
Cc1ccc(NC(=O)c2ccc(CN3CCN(C)CC3)cc2)cc1Nc1nc(-c2cccnc2)cs1 [Masitinib] | 1.03 ± 0.044 | 1.06 ± 0.028 | 1.04 ± 0.029 | 1.03 ± 0.041 | 1.04 ± 0.038 | 1.06 ± 0.03 | 1.006 ± 0.006 | 0.979 ± 0.021 | 0.798 ± 0.015 | 0.519 ± 0.0078 | 0.127 ± 0.012 | – | – | – | – | – | – | – | – | – | – | –
C[C@@H](c1ccc2nccn2c1)n1nnc2ncc(-c3cnn(C)c3)nc21 [Volitinib] | 1.06 ± 0.029 | 1.06 ± 0.034 | 1.08 ± 0.027 | 1.08 ± 0.051 | 1.06 ± 0.045 | 1.089 ± 0.0097 | 1.07 ± 0.041 | 1.06 ± 0.043 | 1.1 ± 0.026 | 1.05 ± 0.025 | 1.05 ± 0.044 | – | – | – | – | – | – | – | – | – | – | –
CC(C)(C)c1cc(NC(=O)Nc2ccc(-c3cn4c(n3)sc3cc(OCCN5CCOCC5)ccc34)cc2)no1 [Quizartinib] | 1.05 ± 0.023 | 1.045 ± 0.0071 | 1.05 ± 0.0053 | 1.041 ± 0.0092 | 1.051 ± 0.0052 | 1.04 ± 0.012 | 1.04 ± 0.019 | 1.03 ± 0.037 | 1.029 ± 0.01 | 1.032 ± 0.0056 | 1.02 ± 0.018 | – | – | – | – | – | – | – | – | – | – | –

From the supplement of paper PMC10883282
